Holding throughout (experiment): growth of human tumour cells (NCI), 48 h
Assay [1] relates to A498.
In assay [2] the test system is A549.
The subject of assay [3] is DLD-1.
The subject of assay [4] is DMS-273.
Assay [5] concerns HCC 2998.
Assay [6] has as its system HOP-18.
The test system of assay [7] is HOP-62.
The test system of assay [8] is HOP-92.
The test system of assay [9] is IGROV-1.
Assay [10] relates to LOX IMVI.
For assay [11], the system named is NCI-H226.
Assay [12] concerns NCI-H460.
Assay [13] deals with NCI-H522.
The subject of assay [14] is OVCAR-4.
Assay [15] concerns RPMI-8226.
In assay [16] the test system is SF-268.
For assay [17], the system named is SK-OV-3.
In assay [18] the test system is SW-620.
Assay [19] relates to U-251.
The subject of assay [20] is UO-31.

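48-hour exposure; five concentrations; linearly interpolated endpoints. GI50: concentration for 50% inhibition of growth.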 Calls of active or inactive are those of the source. No stated cut-off is given here; in the data, active = GI50 up to about 1.1 µM and inactive = higher.

`Cc1ccccc1OCC(COC(=O)Nc1ccccc1)OC(=O)Nc1ccccc1` (stereo not given): the GI50 in assay [1] is 61.2 µM (inactive); in assay [2], 32.7 µM (inactive); in assay [3], 28.8 µM (inactive); in assay [4] it was 32.1 µM (inactive); in assay [5], 83.8 µM (inactive); in [6] it was 34.4 µM (inactive). The GI50 is 31.9 µM (inactive) in assay [7]; 10.9 µM (inactive) in assay [8]; > 100 µM (inactive) in assay [9]; 15.1 µM (inactive) in assay [10]; 25.8 µM (inactive) in [11]; 20.2 µM (inactive) in assay [12]. Moreover, the GI50 in assay [13] was 19.6 µM (inactive); in assay [14], 13.1 µM (inactive); in [15], 1.81 µM (inactive); in assay [16], 50.9 µM (inactive); in [17] it was 59.7 µM (inactive); in assay [18], 52.8 µM (inactive). For the same compound, the results for the GI50 in assay [19] and in assay [20] were 38 µM (inactive) and 34.6 µM (inactive), respectively.
As for `CCC(C)COC(=O)c1ccc(/N=C\c2ccc(/C=N/c3ccc(C(=O)OCC(C)CC)cc3)cc2)cc1` (stereo not given), the GI50 in [1], in assay [2], in assay [3], in [4], in assay [5] and in assay [6] was > 100 µM (inactive) each time. Besides, the GI50 in assay [7], in assay [8], in assay [9], in [10], in assay [11] and in assay [12] was > 100 µM (inactive) each time. Besides, the GI50 in assay [13], in [14], in assay [15], in [16], in assay [17] and in [18] was > 100 µM (inactive) in each case. Moreover, the GI50 in assay [19] is > 100 µM (inactive); in [20], 10.5 µM (inactive).
Take `CN(C)CCNC(=O)c1cccc2c1C(=O)c1ccccc1C2=O`: the GI50 was > 100 µM (inactive) in assay [1]; 37.2 µM (inactive) in assay [2]; 25.5 µM (inactive) in [3]; 23.7 µM (inactive) in assay [4]; 39.1 µM (inactive) in assay [5]; > 100 µM (inactive) in assay [6]. Also, the GI50 is > 31.6 µM (inactive) in assay [7]; 23.8 µM (inactive) in assay [8]; 26.4 µM (inactive) in assay [9]; 25.6 µM (inactive) in assay [10]; > 94 µM (inactive) in assay [11]; 29.6 µM (inactive) in assay [12]. Further, the GI50 in [13] is 25.1 µM (inactive); in assay [14], 28.2 µM (inactive); in [15] it was 50.9 µM (inactive); in assay [16] it was > 100 µM (inactive); in assay [17] it was 58.9 µM (inactive); in assay [18], 28.9 µM (inactive). In addition, the GI50 was 31.7 µM (inactive) in assay [19] and 54 µM (inactive) in assay [20].
Regarding `CCOC(C)OC1CC(n2cc(C)c(=O)[nH]c2=O)OC1CO` (stereo not given), the GI50 in assay [1], in [2], in assay [3], in assay [4], in [5] and in assay [6] was > 100 µM (inactive) in each case. Moreover, the GI50 in assay [7], in assay [8], in assay [9], in assay [10], in assay [11] and in assay [12] was > 100 µM (inactive) in each case. Moreover, the GI50 in assay [13], in assay [14], in assay [15], in assay [16], in assay [17] and in assay [18] was > 100 µM (inactive) in each case. The GI50 in [19] and in assay [20] was > 100 µM (inactive) throughout.
Take `CC(/C=N/N=C(N)N)=N\N=C(N)N`: the GI50 in assay [1] is 253 µM (inactive); in assay [2] it was 61.9 µM (inactive); in [3] it was 48.9 µM (inactive); in assay [4], 31.6 µM (inactive); in [5], 5.57 µM (inactive); in assay [6], 246 µM (inactive). Moreover, the GI50 in assay [7] was 6.58 µM (inactive); in assay [8] it was 3.43 µM (inactive); in assay [9], 279 µM (inactive); in [10] it was 4.18 µM (inactive); in assay [11], 38.5 µM (inactive); in [12], 8.97 µM (inactive). In addition, the GI50 in assay [13] is 29.7 µM (inactive); in assay [14], 3.4 µM (inactive); in assay [15] it was 12.1 µM (inactive); in assay [16], 3.56 µM (inactive); in assay [17] it was 43.4 µM (inactive); in assay [18], 7.21 µM (inactive). Also, the GI50 in assay [19] was 18.5 µM (inactive); in assay [20] it was 9.82 µM (inactive).
Turning to `CC1=CC2c3cccc4[nH]cc(c34)CC2N(C)C1` (stereo not given), the GI50 in assay [1] is > 76.6 µM (inactive); in [2] it was > 100 µM (inactive); in assay [3], > 37.8 µM (inactive); in assay [4], > 100 µM (inactive); in [5], 25.5 µM (inactive); in assay [6], 23.4 µM (inactive). In addition, the GI50 in assay [7] is 15.8 µM (inactive); in assay [8] it was 24.4 µM (inactive); in [9], > 100 µM (inactive); in assay [10], 70.8 µM (inactive); in [11], > 100 µM (inactive); in [12], 56.5 µM (inactive). In addition, the GI50 in assay [13], in assay [14], in assay [15], in assay [16], in [17] and in [18] was > 100 µM (inactive) throughout. For the same compound, the values for the GI50 in [19] and in assay [20] were > 100 µM (inactive) and 11.9 µM (inactive), respectively.
Take `Cc1c2c(cc3c1[nH]c1ccccc13)C(c1ccc(F)cc1)=NCC2`: the GI50 in assay [1] was 1.37 µM (inactive); in assay [2], 1.48 µM (inactive); in assay [3], 0.851 µM (active); in [4], 0.63 µM (active); in assay [5], 1.04 µM (active); in [6], 2.88 µM (inactive). In addition, the GI50 was 2.05 µM (inactive) in assay [7]; 1.44 µM (inactive) in assay [8]; 0.855 µM (active) in [9]; 0.509 µM (active) in assay [10]; 1.43 µM (inactive) in assay [11]; 0.815 µM (active) in [12]. Moreover, the GI50 in assay [13] is 1.08 µM (active); in assay [14] it was 0.703 µM (active); in assay [15], 0.935 µM (active); in assay [16], 2.18 µM (inactive); in assay [17] it was 1.37 µM (inactive); in [18] it was 0.665 µM (active). In addition, the GI50 was 1.43 µM (inactive) in assay [19] and 1.08 µM (active) in [20].
With `O=S(=O)(O)c1cc2ccc1/C=C\c1ccc(cc1S(=O)(=O)O)/N=N\c1ccc(c(S(=O)(=O)O)c1)/C=C\c1ccc(cc1S(=O)(=O)O)/N=N\2`, the GI50 in assay [1], in assay [2], in assay [3], in assay [4], in [5] and in assay [6] was > 100 µM (inactive) each time. The GI50 in assay [7], in assay [8], in assay [9], in assay [10], in assay [11] and in assay [12] was > 100 µM (inactive) in each case. The GI50 in [13] was > 100 µM (inactive); in assay [14], > 86.1 µM (inactive); in assay [15] it was > 100 µM (inactive); in [16], > 100 µM (inactive); in assay [17], > 100 µM (inactive); in assay [18], > 100 µM (inactive). The GI50 in [19] and in [20] was > 100 µM (inactive) throughout.

The record behind these values is ChEMBL document CHEMBL1201862, “PubChem BioAssay data set” (2004).
